According to patent US10590145B2, “Tetrahydrothiopyranopyrimidine derivatives as anti-HIV agent” (SHANDONG UNIVERSITY, priority 2016, dated 2020):
Like-named read-outs stand apart in the source and are kept apart here.

Assays:
[1] = system: HIV-1 E138K mutant strain; test: Anti-HIV-1 activity in MT-4 cells (MTT method), E138K; format: cell-based; settings: Human immunodeficiency virus 1, MT4, read-out: EC50 (nM) E138K
Protocol: (§1) Selected compounds were screened for inhibitory activity against HIV-1 using MTT method as describe previously by Christophe. Pannecouque et al. Nat. Protoc. 3 (2008) 427-434, and Rudi Pauwels et al. J. Virol. Methods 20 (1988) 309-321. Briefly, MT-4 cells infected with HIV-1 can only survive for 5 to 7 days without any treatment, but when HIV-1 inhibitors were added, they can protect MT-4 cell from cytopathic. Serial solution of compounds was added to MT-4 cells after infected with HIV-1, MTT method was used to detect the survival rate after culture for 5 to 7 days. EC50 value was defined as compound concentration required to achieve 50% protection of MT-4 cells against HIV-1-induced cytopathic effect. In vitro anti-HIV-1 assay was supported by Rega Institute for Medical Research.
(§2) • (1) MT-4 cells infected with HIV-1 viral strains (IIIB, L100I, K103N, Y181C, Y188L, E138K, F227L/V106A, Y181C/K103N) were provided by Rega Institute for Medical Research, Katholieke Universiteit Leuven, Belgium. • (2) MTT and formazan: sigma Chemical Co. • (3) Preparation of compounds: Stock solutions (10×final concentration) of test compounds is diluted with double distilled water for 5 folds and 5 concentrations of one compound are prepared. • (4) Reference drugs: Nevirapine (NVP), Efavirenz (EFV), Etravirine (ETV), Rilpivirine (RPV) and Azidothymidine (AZT). • (5) Method (MTT method): Serial five-fold dilutions of test compounds were added to cultured MT-4 cells infected with HIV-1, after 5 to 7 days, MTT was added and cultured for a few hours. Medium was removed and lysate was added followed by formazan, OD value was determined in 690 nm and 540 nm by microplate reader, and EC50 value was calculated. 2. Method
(§3) The MTT method was described briefly as follows: 96-well plastic microtiter trays were filled with 100 μL of complete medium. Subsequently, serial of tested compounds was added (25 μL) to two series of triplicate wells so as to allow simultaneous evaluation of their effects on HIV- and mock infected cells. 50 μL of 1×10^4 cells/mL MT-4 cells were added. After cultured for 5 days at 37° C. in humidified atmosphere in the presence of 5% CO2, MTT was added and cultured for another 2 h, then medium was removed and 100 μL isopropanol solution was added to lyse the cells. Formazan crystals were added and vibrated platform shaker for 10 min to solubilize the formazan crystals. Absorbances at 690 nm and 540 nm were read by using spectrophotometrically. EC50 was defined as the concentration achieving 50% protection from the cytopathic effect of the virus in infected cells.
(§4) Selected compounds prepared as described above were assayed in MT-4 cells infected with wide-type IIIB, L100I, K103N, Y181C, Y188L, E138K or double mutant RES056 (Y181C/K103N) and F227L/V106A HIV-1 strains. Nevirapine, Efavirenz, Etravirine, Rilpivirine and Azidothymidine were selected as reference drugs. The results were listed below as EC50 value (nM)

[2] = system: HIV-1 Y188L mutant strain; test: Anti-HIV-1 activity in MT-4 cells (MTT method), Y188L; format: cell-based; settings: Human immunodeficiency virus 1, MT4, read-out: EC50 (nM) Y188L
Protocol: as §1, §2, §3, §4

[3] = system: HIV-1 double mutant RES056 (Y181C/K103N); test: Anti-HIV-1 activity in MT-4 cells (MTT method), RES056; format: cell-based; settings: Human immunodeficiency virus 1, MT4, read-out: EC50 (nM) Y181C/K103N
Protocol: as §1, §2, §3, §4

[4] = system: HIV-1 L100I mutant strain; test: Anti-HIV-1 activity in MT-4 cells (MTT method), L100I; format: cell-based; settings: Human immunodeficiency virus 1, MT4, read-out: EC50 (nM) L100I
Protocol: as §1, §2, §3, §4

[5] = system: HIV-1 Y181C mutant strain; test: Anti-HIV-1 activity in MT-4 cells (MTT method), Y181C; format: cell-based; settings: Human immunodeficiency virus 1, MT4, read-out: EC50 (nM) Y181C
Protocol: as §1, §2, §3, §4

[6] = system: HIV-1 F227L/V106A double mutant strain; test: Anti-HIV-1 activity in MT-4 cells (MTT method), F227L/V106A; format: cell-based; settings: Human immunodeficiency virus 1, MT4, read-out: EC50 (nM) F227L/V106A
Protocol: as §1, §2, §3, §4

[7] = system: wide-type HIV-1 (strain IIIB); test: Anti-HIV-1 activity in MT-4 cells (MTT method), wild-type; format: cell-based
Protocol: as §1, §2, §3, §4

[8] = system: HIV-1 K103N mutant strain; test: Anti-HIV-1 activity in MT-4 cells (MTT method), K103N; format: cell-based; settings: Human immunodeficiency virus 1, MT4, read-out: EC50 (nM) K103N
Protocol: as §1, §2, §3, §4

[9] = Human immunodeficiency virus 1, IIIB, MT4, read-out: EC50 (nM) wt

Row | SMILES | EC50 [1] [nM] | EC50 [2] [nM] | EC50 [3] [nM] | EC50 [4] [nM] | melting point [°C] | EC50 [5] [nM] | EC50 [6] [nM] | EC50 [7, 9] [nM] | EC50 [8] [nM] | Activity against wide-type HIV-1, folds better than NVP ([7]; wide-type HIV-1, relative to NVP) [folds] | Activity against wide-type HIV-1 compared with RPV ([7]; wide-type HIV-1, relative to RPV) | EC50 ([7]; Human immunodeficiency virus 1, MT4, MT-4 cells, 50% protection against HIV-1-induced cytopathicity, wt (IIIB), read-out: EC50 (nM) wt) [nM]
1 | Cc1cc(C#N)cc(C)c1Oc1nc(Nc2ccc(C#N)cc2)nc2c1SCCC2 [IA-1-1, 4-((2-((4-cyanophenyl)amino)-7,8-dihydro-6H-thiopyrano[3,2-d]pyrimidin-4-yl)oxy)-3,5-dimethylbenzonitrile] | 10 to 100 | 10 to 100 | 10 to 100 | 10 to 100 | 253 to 254 | 10 to 100 | 10 to 100 | < 10 | < 10 | – | – | –
2 | Cc1cc(C#N)cc(C)c1Oc1nc(Nc2ccc(C#N)cc2)nc2c1[S+]([O-])CCC2 (stereo not shown) [IA-1-3, 4-((2-((4-cyanophenyl)amino)-5-oxido-7,8-dihydro-6H-thiopyrano[3,2-d]pyrimidin-4-yl)oxy)-3,5-dimethylbenzonitrile] | 10 to 100 | 10 to 100 | > 100 | > 100 | 247 to 249 | 10 to 100 | > 100 | < 10 | 10 to 100 | – | – | –
3 | Cc1cc(C#N)cc(C)c1Oc1nc(Nc2ccc(C#N)cc2)nc2c1S(=O)(=O)CCC2 [IA-1-4, 4-((2-((4-cyanophenyl)amino)-5,5-dioxido-7,8-dihydro-6H-thiopyrano[3,2-d]pyrimidin-4-yl)oxy)-3,5-dimethylbenzonitrile] | 10 to 100 | 10 to 100 | 10 to 100 | 10 to 100 | 263 to 265 | 10 to 100 | 10 to 100 | < 10 | < 10 | 30 | comparable | –
4 | Cc1cc(C#N)cc(C)c1Oc1nc(NC2CCN(Cc3ccc([N+](=O)[O-])cc3)CC2)nc2c1SCCC2 [IIA-1-12, 3,5-dimethyl-4-((2-((1-(4-nitrobenzyl)piperidin-4-yl)amino)-7,8-dihydro-6H-thiopyrano[3,2-d]pyrimidin-4-yl)oxy)benzonitrile] | 10 to 100 | 10 to 100 | > 100 | > 100 | – | > 100 | > 100 | < 10 | 10 to 100 | – | – | –
5 | Cc1cc(C#N)cc(C)c1Oc1nc(NC2CCN(Cc3ccc(N)cc3)CC2)nc2c1SCCC2 [IIA-1-13, 4-((2-((1-(4-aminobenzyl)piperidin-4-yl)amino)-7,8-dihydro-6H-thiopyrano[3,2-d]pyrimidin-4-yl)oxy)-3,5-dimethylbenzonitrile] | 10 to 100 | 10 to 100 | > 100 | 10 to 100 | – | 10 to 100 | > 100 | < 10 | < 10 | – | – | –
6 | Cc1cc(C#N)cc(C)c1Oc1nc(NC2CCN(Cc3ccc(NS(C)(=O)=O)cc3)CC2)nc2c1SCCC2 [IIA-1-14, N-(4-((4-((4-(4-cyano-2,6-dimethylphenoxy)-7,8-dihydro-6H-thiopyrano[3,2-d]pyrimidin-2-yl)amino)piperidin-1-yl)methyl)phenyl) methanesulfonamide] | < 10 | 10 to 100 | > 100 | 10 to 100 | – | < 10 | > 100 | < 10 | < 10 | – | – | –
7 | Cc1cc(C#N)cc(C)c1Oc1nc(NC2CCN(c3cccc(C#N)c3)CC2)nc2c1SCCC2 [IIC-1-1, 4-((2-((1-(3-cyanophenyl)piperidin-4-yl)amino)-7,8-dihydro-6H-thiopyrano[3,2-d]pyrimidin-4-yl)oxy)-3,5-dimethylbenzonitrile] | > 100 | > 100 | > 100 | > 100 | – | > 100 | > 100 | 10 to 100 | 10 to 100 | – | – | –
8 | Cc1cc(C#N)cc(C)c1Oc1nc(NC2CCN(c3cccc(C(N)=O)c3)CC2)nc2c1SCCC2 [IIC-1-2, 3-(4-((4-(4-cyano-2,6-dimethylphenoxy)-7,8-dihydro-6H-thiopyrano[3,2-d]pyrimidin-2-yl)amino)piperidin-1-yl)benzamide] | 10 to 100 | < 10 | 10 to 100 | 10 to 100 | – | < 10 | > 100 | < 10 | < 10 | – | – | –
9 | Cc1ccnc2c1NC(=O)c1cccnc1N2C1CC1 [NVP, Nevirapine, reference compound] | > 100 | > 100 | > 100 | > 100 | – | > 100 | > 100 | – | > 100 | – | – | > 100
10 | Cc1cc(/C=C/C#N)cc(C)c1Nc1ccnc(Nc2ccc(C#N)cc2)n1 [RPV, Rilpivirine, reference compound] | < 10 | 10 to 100 | 10 to 100 | < 10 | – | < 10 | 10 to 100 | < 10 | < 10 | – | – | –
